Assay results published in US10849875B2, “Cancer specific lipid targeted peptidomimetics” (University of Houston System, priority 2015, dated 2020).
Positions of bridges follow the written chain, without caps; N, C: chain ends. Non-standard residues stand in square brackets, D forms with d. Residues, ends and D or L forms follow the SMILES beside them. Chains are numbered I, II in the order given. Gly(N-piperonyl) = O=C(O)CNCc1ccc2c(c1)OCO2; N(4-MeOBn)Gly = COc1ccc(CNCC(=O)O)cc1; Nrpe = C[C@@H](NCC(=O)O)c1ccccc1; Nlys = NCCCCNCC(=O)O

How the values were obtained:
[1] = In vitro cellular activity of PS targeted peptoid derivatives; type: cell-based
Source text: Peptoid compounds include but are not limited to PPS1D1 (FIG. 15), PPS1-DE2 (FIG. 16), PPS1-RD1 (FIG. 17), PPS1-2P3H (FIG. 18), PPS1-4P3H (FIG. 19), PPS1-Tri-1 (FIG. 20), PPS1-Tet-1 (FIG. 21), and PPS2D1 (FIG. 22). […] PPS1D1 has a validated in vivo animal tumor burden activity.

[2] = Lipid ELISA-like binding assay
Description: The direct binding of PPS1 to PS was tested. An ELISA-like assay was used. Two main lipids typically found on cell membrane, PS and PC, were immobilized separately on a 96-well plates and biotinylated PPS1 was incubated at an increasing concentration gradient. Presence of bound PPS1 was detected by HRP-streptavidin after appropriate blocking and washing. (FIG. 11A), PC was selected as the control because it is the most abundant neutral phospholipid found in the outer leaflet of the normal cell membranes. […] This indicates […] has specificity to PS over PC.
ELISA binding assay on PS and PC: PS and PC (Avanti Polar Lipids) were dissolved in hexane at 10 μg/ml concentration and added to Immulon 1B “U” bottom microtiter plates (Thermo) 50 μl/well. hexane was allowed to evaporate at room temp (in the hood). Plates were blocked by adding 200 μl 1% BSA in PBS to each well and incubated for 1 hour. Each well was washed with 3× w/200 μl PBS. Serial dilutions (0.5 μM to 0.0078 μM) of biotinylated PPS1 and PPS2 were dissolved in blocking buffer (100 μl/well) and incubated for 1 hr on shaker. Washed 5× w/200 μl PBS. Added 100 μl streptavidin-HRP (1:2000 in blocking buffer) to each well and incubated for 30 min. […] Stopped the reaction with 100 μl 0.18M H2SO4 Read OD at 490 nm.
Since PS is selectively exposed on the surface of HCC4017 cells compared with HBEC30KT, it was examined if PPS1D1 (FIG. 9B and FIG. 72) binds to PS directly. In an ELISA-like assay, PS and PC were coated separately on 96-well plates, biotinylated PPS1D1 (FIG. 65) was introduced in a concentration gradient and the bound compound was detected using standard streptavidin-HRP system.
Lipids (Avanti Polar Lipids) were dissolved in hexane at 10 μg/ml and coated on to Immulon 1B “U” bottom microtiter plates (ThermoFisher, MA). […] Plates were washed with 5× PBS and binding was detected with streptavidin-HRP (1:2000 in blocking buffer) followed by 100 μl OPD (Sigma-Aldrich). The reaction was stopped with 100 μl 0.18M H2SO4 and absorbance was read at 490 nm using the spectrophotometer (Spectramax i3, Molecular Devices, CA).

[3] = tested on: HBEC3kt cells; assay: MTS cell viability assay; type: cell-based, human; conditions: serial dilutions
Description: After confirming the binding and specificity of the PPS1 on HCC4017 lung cancer cells, whether this compound has any biological effects on HCC4017 lung cancer cells was assayed. The gold standard cell viability (MTS) assay was used. HCC4017 cells and HBEC30kt and HBEC3kt cells were grown in 96 well plates on day 1, then treated by serial dilution of PPS1 and control compound C462 on day 2, and the viable cell count was measured using MTS reagent on day 3. […] On one of the repetitive experiments of this assay, Cystinylated-PPS1 compound was included (FIG. 6A). This was the intermediate compound used to attach the FITC-malemide for binding assays described previously. […] The only difference between this Cystinylated-PPS1 and the original PPS1 compound was just a single cysteine amino acid at the C-terminal. […]
A homo-dimeric version of PPS1 was synthesized. […] The resulting dimeric version of the PPS1 compound, PPS1D1 (FIG. 6C), and the analogous dimeric versions of scrambled PC2, PC2D1 (FIG. 6E), and control compound C462, PC462D1 (FIG. 82), were then evaluated for activity. […] As described above, HCC4017 cells and HBEC30kt and HBEC3kt cells were grown in 96 well plates on day 1, treated serial dilutions of PPS1, PPS1D1, C462 and C462D1 on day 2, and viable cell count was measured using MTS reagent on day 3. […]

In the case of `COc1ccc(CN(CC(=O)N(CCCCN)CC(=O)N[C@@H](CCCCN)C(=O)N[C@H](CCCCN)C(=O)N[C@@H](CCSC)C(=O)NCCCC[C@H](NC(=O)[C@H](CCSC)NC(=O)[C@@H](CCCCN)NC(=O)[C@H](CCCCN)NC(=O)CN(CCCCN)C(=O)CN(Cc2ccc(OC)cc2)C(=O)CN(C(=O)CN(Cc2ccc3c(c2)OCO3)C(=O)CN[C@H](C)c2ccccc2)[C@H](C)c2ccccc2)C(N)=O)C(=O)CN(C(=O)CN(Cc2ccc3c(c2)OCO3)C(=O)CN[C@H](C)c2ccccc2)[C@H](C)c2ccccc2)cc1` [PPS1D1] (I: H-[Nrpe][Gly(N-piperonyl)][Nrpe][N(4-MeOBn)Gly][Nlys]K[dK]MK-NH2 / II: H-[Nrpe][Gly(N-piperonyl)][Nrpe][N(4-MeOBn)Gly][Nlys]K[dK]M; amide I:9-II:C; N-terminus assumed), the “in vitro cellular activity” value [1] is reported as “validated in vitro cellular activity”, the “binding to PC” value ([2]; PC-coated ELISA plates) is reported as “very high specificity over the PC” and the “binding to PS” value ([2]; PS-coated ELISA plates) is reported as “strongest affinity”. The Kd ([2]; PS-coated ELISA plates, biotinylated compound, streptavidin-HRP) was ~0.055 µM and the “activity on normal HBEC3kt cells” value [3] was “did not have any activity”.
